Measured values taken from US4176185A, “Spiro-quinolylhydantoins” (Pfizer Inc., priority 1979, dated 1979).

Legend:
[1] = system: aldose reductase; test: inhibition of aldose reductase enzyme activity; type: biochemical; conditions: partially purified aldose reductase from calf lens
Text: (§1) The activity of the compounds of the present invention as agents for the control of chronic diabetic complications may be determined by a number of standard biological or pharmacological tests. Suitable tests include (1) measuring their ability to inhibit the enzyme activity of isolated aldose reductase; (2) measuring their ability to reduce or inhibit sorbitol accumulation in the sciatic nerve of acutely streptozotocinized (i.e. diabetic) rats; (3) measuring their ability to reverse already-elevated sorbitol levels in the sciatic nerve and lens of chronic streptozotocin-induced diabetic rats; (4) measuring their ability to prevent or inhibit galactitol formation in the lens of acutely galactosemic rats; and (5) measuring their ability to delay cataract formation and reduce the severity of lens opacities in chronic galactosemic rats.
The compounds of Examples 3 and 6 were tested for their ability to reduce or inhibit aldose reductase enzyme activity, following the procedure described in U.S. Pat. No. 3,821,383 and based on the procedure of Hayman et. al., Journal of Biological Chemistry, 240, 877 (1965). The substrate employed was partially purified aldose reductase enzyme obtained from calf lens. The results obtained with each compound at a concentration of 10^-4 M are expressed as percent inhibition of enzyme activity.

[2] = system: sorbitol accumulation in the sciatic nerve; test: inhibition of sorbitol accumulation in the sciatic nerve of streptozotocinized (diabetic) rats; type: in vivo, rat; conditions: measured 27 h after induction of diabetes, vs untreated
Text: as §1
The compounds of Examples 3 and 6 were tested for their ability to reduce or inhibit sorbitol accumulation in the sciatic nerve of streptozotocinized (i.e. diabetic) rats by the procedure essentially described in U.S. Pat. No. 3,821,383. In the present study, the amount of sorbitol accumulation in the sciatic nerves was measured 27 hours after induction of diabetes. The compounds were administered orally at the dose levels indicated at 4, 8 and 24 hours following the administration of streptozotocin. […]

Row | Structure (SMILES) | % Inhibition at 10^-4 M (aldose reductase enzyme activity) [1] | % Inhibition (sorbitol accumulation in sciatic nerve) ([2]; 1.5 mg/kg oral at 4, 8 and 24 h after streptozotocin) | % Inhibition (sorbitol accumulation in sciatic nerve) ([2]; 10 mg/kg oral at 4, 8 and 24 h after streptozotocin)
1 | O=C1NC(=O)C2(CCOc3c2ccc2cccnc32)N1 (stereo not shown) [Example 3] | 75% | 27% | 
2 | O=C1NC(=O)C2(CCOc3c2ccc2ncccc32)N1 (stereo not shown) [Example 6] | 94% |  | 92%
